Read-outs that look alike come from different tables or passages of the source.
How the values were obtained:
Type in all cases: cell-based
human keratinocytes = experiment: 3H-Thymidine incorporation into human keratinocytes, antiproliferative effects of vitamin D metabolites in the presence of inhibitors (test b)); conditions: Keratinocyte; test b)
[1] = target: T1, 25-hydroxyvitamin D3-hydroxylases which attack the C20-27-side chain of vitamin D3 (Homo sapiens, UniProt Q07973); experiment: Inhibition of side chain metabolism / vitamin D3-hydroxylases attacking the C20-27 side chain in calcitriol-pretreated keratinocytes (test a)); conditions: for inhibition of 25-hydroxyvitamin D3-hydroxylases which attack the C20-27 side chain (in words): selectivity versus calcitriol synthesis; for IC50: test a), human keratinocytes, pretreated with 10 nM calcitriol
T1 construct: Confluent human keratinocytes in 1 ml of KGM and in 6-well plates; endogenous in cells; host or cells: normal human epidermal keratinocytes pretreated overnight (16-17 h) with 10 nM calcitriol
T1 sequence (Q07973 36-514): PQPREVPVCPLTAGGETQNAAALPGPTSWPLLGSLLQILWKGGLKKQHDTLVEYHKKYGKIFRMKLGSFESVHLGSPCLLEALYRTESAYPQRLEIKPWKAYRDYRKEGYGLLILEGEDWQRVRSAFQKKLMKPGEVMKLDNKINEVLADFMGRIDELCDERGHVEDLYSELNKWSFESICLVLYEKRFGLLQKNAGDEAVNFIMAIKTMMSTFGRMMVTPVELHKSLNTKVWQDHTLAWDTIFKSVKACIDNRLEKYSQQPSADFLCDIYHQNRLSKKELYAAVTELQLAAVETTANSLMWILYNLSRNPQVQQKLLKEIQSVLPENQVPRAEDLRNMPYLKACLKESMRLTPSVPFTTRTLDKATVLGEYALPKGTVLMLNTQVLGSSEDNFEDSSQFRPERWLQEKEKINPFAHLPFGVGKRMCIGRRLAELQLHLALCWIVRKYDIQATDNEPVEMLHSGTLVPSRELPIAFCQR

25(OH)D3-1-hydroxylase = target: T2, 25(OH)D3-1-hydroxylase (Homo sapiens, UniProt O15528); experiment: Inhibition of vitamin D3-1-hydroxylase (oxidation of 3H-25(OH)D3, test a)); conditions: for IC50: test a), human keratinocytes, 1 hour, without calcitriol pretreatment
T2 construct: Confluent cultures of human keratinocytes in KGM; endogenous in cells; host or cells: normal human epidermal keratinocytes (adult skin from mammary reduction), generally second passage
T2 sequence (O15528 1-508): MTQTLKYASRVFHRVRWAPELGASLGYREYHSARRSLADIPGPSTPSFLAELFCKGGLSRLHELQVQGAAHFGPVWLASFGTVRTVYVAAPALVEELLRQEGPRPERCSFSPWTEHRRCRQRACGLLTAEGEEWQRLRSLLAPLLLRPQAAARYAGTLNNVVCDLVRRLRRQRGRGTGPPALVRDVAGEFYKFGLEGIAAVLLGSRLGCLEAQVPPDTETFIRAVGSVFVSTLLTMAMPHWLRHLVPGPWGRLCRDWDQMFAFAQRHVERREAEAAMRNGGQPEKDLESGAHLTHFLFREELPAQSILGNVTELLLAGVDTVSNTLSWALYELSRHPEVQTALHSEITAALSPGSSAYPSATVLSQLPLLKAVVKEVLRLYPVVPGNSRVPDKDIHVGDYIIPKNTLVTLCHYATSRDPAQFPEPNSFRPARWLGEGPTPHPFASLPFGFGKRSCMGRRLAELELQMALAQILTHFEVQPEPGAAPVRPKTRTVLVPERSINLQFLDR

[2] = in presence of 1α,25(OH)2 D3, read-out: IC50 as regards the concentration required to double the antiproliferative effect of 1α,25(OH)2 D3
[3] = in presence of 25(OH)D3, read-out: IC50 as regards the concentration required to double the antiproliferative effect of 25(OH)D3
[4] = read-out: IC50 for stabilization of 3-epi 1,25(OH)2 D3 levels
[5] = read-out: IC50 for stabilization of levels of the sum of 1,25(OH)2 D3, 1,24,25(OH)3D3 and 1,24oxo,25(OH)2 D3

| inhibition of 25-hydroxyvitamin D3-hydroxylases which attack the C20-27 side chain (in words) [1] | IC50 [1, 4] | IC50 [1, 5] | interference with calcitriol synthesis via the 25(OH)D3-1-hydroxylase (in words) (25(OH)D3-1-hydroxylase) | IC50 (25(OH)D3-1-hydroxylase) | Structure (SMILES) | IC50 (human keratinocytes; [2]) | IC50 (human keratinocytes; [3]) |
| --- | --- | --- | --- | --- | --- | --- | --- |
| selective inhibitors | 40 nM | 45 nM | without interfering with its synthesis | 530 nM | O=C(NC[C@H](c1ccccc1)n1ccnc1)c1ccc(-c2ccc(Cl)cc2)cc1 [Example 8, N-[4-(4-Chlorophenyl)benzoyl]-2-(1H-imidazol-1-yl)-2(S)-phenyl-1-aminoethane] | 30 nM | 11 nM |
| selective inhibitors | 12 nM | 19 nM | without interfering with its synthesis | 620 nM | O=C(NC[C@@H](c1ccccc1)n1ccnc1)c1ccc(-c2ccc(Cl)cc2)cc1 [Example 9, N-[4-(4-Chlorophenyl)benzoyl]-2-(1H-imidazol-1-yl)-2(R)-phenyl-1-aminoethane] | 35 nM | 12 nM |

— patent US5622982A, “Acylated aminoalkanimidazoles and - triazoles” (Sandoz Ltd., priority 1994, dated 1997)
